# Test results taken from patent publication US10578610B2, “Peptide regulators of mitochondrial fusion and methods of use” (priority 2016, dated 2020).
# Ends that are not written are not given here.
# How the values were obtained:
# Mfn2 T105M fl/st MEFs = assay: TAT-minipeptides in MEFs expressing CMT2A mutant hMfn2 T105M; assay type: cell-based, murine; settings: for mitochondrial fragmentation / dysmorphology / mitochondrial polarization / depolarization: Mfn2 T105M MEFs, 72 hours after adeno-Cre, 1 μM
# Protocol: Wild-type murine embryonic fibroblast cells (MEFs) were prepared from E10.5 C57/b6 mouse embryos. SV-40 T antigen-immortalized Mfn1 null (“Mfn1 KO,” ATCC No. CRL-2992), Mfn2 null (“Mfn2 KO,” ATCC No. CRL-2993) and Mfn1/Mfn2 double null MEFs (“Mfn DKO,” ATCC No. CRL-2994) were purchased from ATCC. MEFs conditionally expressing the human Mfn2 T105M mutation were prepared from E10.5 embryos of C57BL/6-Gt(ROSA)26Sor[tm1(CAG-MFN2*T105M)Dple]/J mice purchased from The Jackson Laboratory (Stock No: 025322). MEFs were maintained in DMEM containing 4.5 g/L glucose (or galactose when specified) supplemented with 10% fetal bovine serum, 1× nonessential amino acids, 2 mM L-glutamine, 100 U/ml penicillin and 100 μg/ml streptomycin.
# Models cells harboring a Cre recombinase-inducible mutant human Mfn2 containing the T105M mutation were used (FIG. 13A) because they recapitulate fusion defects caused by compound functional null Mfn2 mutants in […] CMT2A. A time course study of mitochondrial fragmentation after adeno-Cre mediated induction of Mfn2 T105M was performed and the results are shown in FIG. 13B.
# It was considered that mitochondrial dysmorphology created by genetic Mfn2 dysfunction in CMT2A might be improved by TAT-367-384Gly if endogenous normal Mfn1 or Mfn2 proteins could be compelled into their active unfolded conformations, thus overcoming dominant inhibition by GTPase Mfn2 mutants. This was tested in MEFs expressing the CMT2A-causal mutant hMfn2 T105M (Calvo et al., 2009, Arch Neurol, 66:1511-1516; Detmer et al., 2008, Hum Mol Genet, 17:367-375) as a conditional flox/stop (fl/st) transgene. […] Parallel adenoviral expression of WT Mfn2 at more than twice the levels of Mfn2 T105M (5-fold vs 2-fold) provoked neither mitochondrial nor cellular toxicity (data not shown). Scale bars are 10 microns. N=3 or 4; *=P<0.05 vs. control, #=P<0.05 vs. Ad-Cre (ANOVA).
# human Mfn2 = molecular target: T1, human Mfn2 (Homo sapiens, UniProt O95140); assay: Mfn2 GTPase assay; assay type: biochemical; set-up: purchased OriGene; settings: 1 M peptide 15 minutes, then 0.5 mM GTP 1 hour 37° C.; data not shown
# T1 sequence (O95140 1-757): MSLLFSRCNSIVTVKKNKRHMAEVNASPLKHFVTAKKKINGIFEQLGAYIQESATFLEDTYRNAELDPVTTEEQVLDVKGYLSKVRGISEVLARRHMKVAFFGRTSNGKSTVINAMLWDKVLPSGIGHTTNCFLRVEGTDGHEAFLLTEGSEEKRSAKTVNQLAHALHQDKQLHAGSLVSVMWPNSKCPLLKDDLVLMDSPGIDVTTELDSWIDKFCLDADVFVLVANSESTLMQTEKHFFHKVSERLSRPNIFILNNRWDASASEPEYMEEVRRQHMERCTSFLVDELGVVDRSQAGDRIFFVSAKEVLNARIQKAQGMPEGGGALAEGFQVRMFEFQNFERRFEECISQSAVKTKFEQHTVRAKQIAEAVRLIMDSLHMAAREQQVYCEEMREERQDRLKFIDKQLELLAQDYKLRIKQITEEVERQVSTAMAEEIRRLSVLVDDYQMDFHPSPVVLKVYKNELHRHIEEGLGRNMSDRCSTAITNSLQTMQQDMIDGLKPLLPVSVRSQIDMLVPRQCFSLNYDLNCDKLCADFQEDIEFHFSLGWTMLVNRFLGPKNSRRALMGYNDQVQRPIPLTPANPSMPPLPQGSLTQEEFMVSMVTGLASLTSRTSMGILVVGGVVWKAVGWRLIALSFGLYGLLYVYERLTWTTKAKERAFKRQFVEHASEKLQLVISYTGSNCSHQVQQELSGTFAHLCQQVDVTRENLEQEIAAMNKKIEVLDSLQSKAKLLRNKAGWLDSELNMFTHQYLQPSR
# Protocol: Minipeptide effects on Mfn2 GTPase activity were evaluated using a modification of a previously described method (Qi X et al., 2013, J Cell Sci 126:789-802). Briefly, recombinant Mfn2 (100 ng, OriGene, Rockville, Md.) was incubated with […] control TAT peptide, TAT-367-384Gly, or TAT-398-418Gly for 15 minutes prior to addition of 0.5 mM GTP for 1 hour at 37° C. GTPase activity relative to no-peptide control was measured using a colorimetric GTPase assay kit (Novus Biologicals, Littleton, Colo.) following the manufacturer's instructions.
# [1] = tested on: Mfn null MEFs expressing Mfn2 K109A or Mfn2 AA; assay: TAT-minipeptides in Mfn null MEFs expressing Mfn2 mutants; assay type: cell-based, murine; settings: for mitochondrial morphology: Mfn null MEFs expressing Mfn2 AA
# Source text: The efficacy of the minipeptides to correct mitochondrial abnormalities in Mfn null MEFs was further evaluated. In this experiment, several Mfn2 mutants having well-characterized and diverse functional profiles were introduced into Mfn null MEFs. As shown above, mitochondria of MEFs lacking Mfn1 and Mfn2 are highly fragmented. Adenoviral reintroduction of WT Mfn2 corrected dysmorphology in Mfn null MEFs and was required for TAT minipeptides to alter mitochondrial fusion in these cells (FIGS. 12A-12B). By contrast, adenoviral expression of mouse Mfn2 K109A, a GTPase defective mutant (Detmer and Chan, 2007, J Cell Biol, 176:405-414), had no effect on mitochondrial fragmentation in Mfn null MEFs. […] Mitochondrial morphometry in Mfn null MEFs expressing fusion-impaired Mfn2 EE, which has glutamate substitutions to mimic phosphorylation at Mfn2 T111 and […], was more variable (FIG. 12A-12B).
# [2] = Mfn null MEFs expressing only Mfn2 K109A
Sequence,mitochondrial fragmentation / dysmorphology (Mfn2 T105M fl/st MEFs),mitochondrial polarization / depolarization (Mfn2 T105M fl/st MEFs),Mfn2 GTPase activity (human Mfn2),mitochondrial morphology [1],mitochondrial clumping (Mfn2 T105M fl/st MEFs; cells expressing Mfn2 T105M),"mitochondrial aspect ratio / mitochondrial pathology [1, 2]","mitochondrial clumping [1, 2]"
QDRLKFIDKQGELLAQDYKLRGGYGRKKRRQRRR [TAT-398-418Gly],aggravated mitochondrial dysmorphology,exacerbated mitochondrial depolarization,without altering Mfn2 GTPase activity,mitochondrial shortening,–,–,–
QIAEAVRGIMDSLHMAARGGYGRKKRRQRRR [TAT-367-384Gly],rapidly reversed mitochondrial fragmentation,improved mitochondrial polarization,without altering Mfn2 GTPase activity,mitochondrial hyper-elongation,corrected mitochondrial clumping,did not correct mitochondrial pathology,mitochondrial clumping induced
